Laboratory results reported in PMC4015918, “Conjugation to a SMAC mimetic potentiates sigma-2 ligand induced tumor cell death in ovarian cancer” (Molecular Cancer, 2014).

Assays:
Type in all cases: cell-based
TNFα = TNFα ELISA of cell culture supernatants; settings: SKOV3 conditioned medium, 1 μM and 3 μM
Protocol: (§1) Figure 5 SW IV-134 induces activation of the TNFα-dependent extrinsic death pathway. (A) Quantitative real-time PCR analysis of TNFα mRNA expression was done on RNA samples derived from SKOV3 cells treated with SW IV-134 (1 μM and 3 μM) for indicated time periods. All values were normalized to a GAPDH internal control (p < 0.0001, one-way ANOVA). (B) SKOV3 cells were treated with SW IV-134 (1 μM and 3 μM) and cell-culture supernatants were collected at 4, 12, and 24 hours after treatment, and subsequently examined by anti-TNFα ELISA according to manufacturer’s instructions (p < 0.0001, one-way ANOVA). (C) SKOV3 cells were treated with SW IV-134 at indicated doses either alone or in the presence of anti-TNFα blocking antibody for 18 hours. Cell viability was determined as described in the experimental methods (p < 0.019, Student’s t-test).
SKOV3 cells were treated with SW IV-134 (1 μM and 3 μM). Cell culture supernatants were collected at 4, 12, and 24 hours after treatment. Medium was collected, floating cells were removed by centrifugation at 1200 × g for 5 minutes, and samples were frozen at -20°C until analysis. TNFα ELISA was performed using a quantitative high sensitivity sandwich immunoassay from eBioscience (San Diego, CA) as per the manufacturer’s instructions.

TNFα mRNA = experiment: Quantitative RT-PCR of TNFα mRNA; settings: SKOV3 cells, 1 μM and 3 μM, 4-24 hours, normalized to GAPDH; maximal at 24 hours
Protocol: as §1
SKOV3 cells were treated with SW IV-134 (1 μM, 3 μM) or vehicle-control for 4 hours, 12 hours, and 24 hours. At the end of each treatment, cells were harvested and total RNA was isolated using TRIzol reagent (Invitrogen, Grand Island, NY) and RT-PCR performed as per the protocol described before. Briefly, one microgram of RNA from each sample was reverse transcribed to cDNA with Retroscript (Ambion, Austin, TX). […] TNFα data were normalized for expression with GAPDH, and results were expressed as fold change over untreated controls.

NF-қB (p65) = experiment: Western blot for phosphorylation of NF-қB (p65); settings: SKOV3 cells, 10 μM, 4 hours
Protocol: (§2) Figure 4 SW IV-134 engages in SMAC-dependent pathway activation. (A) SKOV3 cells were treated with vehicle only (Ctrl.), SW43 (10 μM), and SW IV-134 (10 μM) for 4 hours and cell lysates were subjected to Western blot analysis using antibodies against XIAP, cIAP-1, cIAP-2, NF-қB and NIK. While XIAP seems unaffected under the conditions used, cIAP-1 and cIAP-2 proteins are readily undetectable shortly post treatment. SW IV-134 treatment also leads to accumulation of NF-қB inducing kinase (NIK) and activation of NF-қB pathway. (B) SKOV3 cells were treated with SW IV-134 at the indicated doses either alone or in the presence of proteasome inhibitor MG132 (20 μM) for 18 hours. […] Cell viability was determined as described in the experimental methods (p < 0.011, Student’s t-test).
(§3) Cells were lysed in radioimmunoprecipitation assay buffer [50 mM Tris, 150 mM sodium chloride, 1.0 mM EDTA, 1% Nonidet P40, and 0.25% SDS (pH 7.0)], supplemented with complete protease inhibitor cocktail (Roche, Mannheim) and phosphatase inhibitor cocktail 1 (Sigma Chemical Co., St. Louis, MO). The protein concentration was determined using a BioRad Dc protein assay kit (Bio-Rad Laboratories, Hercules, CA). Lysates containing 30 μg of protein were run on a 12% polyacrylamide gel and transferred to a PVDF membrane (Bio-Rad Laboratories, Hercules, CA). […]

[1] = system: caspase 3, caspase 8, and caspase 9; experiment: Western blot for precursors and activated forms of caspases 8, 9 and 3; settings: 10 μM, 24 hours, different ovarian cancer cell lines
Protocol: (§4) Figure 3 Treatment with SW IV-134 results in caspase-mediated cell death. (A) Cells were treated with vehicle only (Ctrl.), SW43 (10 μM), and SW IV-134 (10 μM) for 24 hours. Cell lysates were subjected to Western blot analysis, and probed with antibodies specific for the precursors and activated forms of caspases 8, 9, and 3. (B) SKOV3 cells were treated with SW IV-134 at indicated doses either alone or in the presence of the pan-caspase inhibitor Z-VAD-FMK (20 μM) for 18 hours. Cell viability was determined by CellTiter-Glo assays (p < 0.018, Student’s t-test).
as §3

SKOV3 cells = experiment: SKOV3 cell viability (CellTiter-Glo) with SW IV-134 alone or with pathway blockers
Protocol: as §4, §2
Figure 5 SW IV-134 induces activation of the TNFα-dependent extrinsic death pathway. (A) Quantitative real-time PCR analysis of TNFα mRNA expression was done on RNA samples derived from SKOV3 cells treated with SW IV-134 (1 μM and 3 μM) for indicated time periods. All values were normalized to a GAPDH internal control (p < 0.0001, one-way ANOVA). […] Cell viability was determined as described in the experimental methods (p < 0.019, Student’s t-test).
Cells (1 × 10^4) were seeded into 96 well plates. […] Cell viability was determined 18 hours after treatment using CellTiter-Glo Luminiscent Viability Assay (Promega, Madison, WI). Data were recorded with a SpectraMax Gemini microplate spectrofluorometer, Molecular Devices (Silicon Valley, CA).

SMILES: COc1ccc(C)cc1NC(=O)OC1CC2CCCC(C1)N2CCCCCCCCCCN[C@@H](C)C(=O)N[C@H](C(=O)N1CCC[C@H]1C(=O)N[C@@H]1CCCc2ccccc21)C(C)(C)C (stereo partly drawn) [SW IV-134]
- TNFα protein secretion (TNFα; 4 hours): undetectable
- TNFα protein secretion (TNFα; 12 hours): mildly elevated
- TNFα protein secretion (TNFα; 24 hours): highest levels
- Increase in TNFα mRNA levels compared to untreated cells (TNFα mRNA): 20-50 fold
- Activation (phosphorylation) of NF-қB (p65) (NF-қB (p65)): activation (phosphorylation) of NF-қB (p65)
- Activation of caspase 3, caspase 8, and caspase 9 [1]: induced
- Cell death induced by SW IV-134 in the presence of TNFα-blocking antibody (SKOV3 cells; SKOV3, 18 hours): significant protection from cell death
- SW IV-134 mediated cell death in the presence of proteasome inhibitor MG132 (SKOV3 cells; SKOV3, MG132 20 μM, 18 hours): significantly reduced
- SW IV-134 induced cell death in the presence of pan-caspase inhibitor Z-VAD-FMK (SKOV3 cells; SKOV3, Z-VAD-FMK 20 μM, 18 hours): significantly reduced
